Data published in the NIST ThermoML archive (doi:10.1021/je3013028).
± gives the expanded uncertainty stated by the source.

Legend:
[1] = refractive index (Na D-line) (dimensionless); settings: 298.15 K; 101.33 kPa; Liquid; Standard Abbe refractometry
[2] = Liquid, Ebulliometric method (Recirculating still)

Row | Structure (SMILES) | refractive index [1] | vapor or sublimation pressure ([2]; 336.63 K) [kPa] | vapor or sublimation pressure ([2]; 308.14 K) [kPa] | vapor or sublimation pressure ([2]; 335.63 K) [kPa] | further results
1 | CCCS [1-propanethiol] | 1.4353 ± 0.0003 | – | – | – | –
2 | CC(C)(C)S [2-methyl-2-propanethiol] | 1.42 ± 0.00031 | – | – | – | vapor or sublimation pressure ([2]; 336.69 K): 98.5 ± 0.9 kPa
3 | CCSCC [3-thiapentane] | 1.43998 ± 0.00032 | 39.7 ± 0.8 | – | – | –
4 | COC [dimethyl ether] | – | 1572.2 ± 7.7 | 786.6 ± 3.5 | 1540 ± 6.2 | vapor or sublimation pressure ([2]; 336.7 K): 1572.2 ± 7.7 kPa
5 | C=CCCCC [hex-1-ene] | 1.3851 ± 0.0003 | – | – | – | vapor or sublimation pressure ([2]; 328.15 K): 77 ± 0.5 kPa; vapor or sublimation pressure ([2]; 335.74 K): 98.7 ± 0.6 kPa; vapor or sublimation pressure ([2]; 336.09 K): 99.8 ± 0.6 kPa
6 | c1ccsc1 [thiophene] | 1.52869 ± 0.00031 | – | 16.9 ± 0.8 | 49.4 ± 0.8 | –
